For one compound, mutagenicity results are on record in patent publication US9353088B2, “Crystalline pharmaceutical and methods of preparation and use thereof” (SARcode Bioscience Inc., priority 2009, dated 2016).

This series concerns tester strains. As to the kind of experiment: In vitro Ames bacterial reverse mutation assay. It is filed as cell-based. The settings on record: presence or absence of microsomal (S9) enzymes. From the text: Therefore, the compound of Formula I was judged to be not mutagenic.

Each structure is given as a SMILES string.

As to `CS(=O)(=O)c1cccc(C[C@H](NC(=O)c2c(Cl)cc3c(c2Cl)CCN(C(=O)c2ccc4ccoc4c2)C3)C(=O)O)c1` [Compound of Formula I], the mutagenicity result is given as “not mutagenic”.
